# Key:
# [1] = tested on: gram-negative and gram-positive bacteria; conditions: against gram-negative and gram-positive bacteria; relative to sparfloxacin and ciprofloxacin; Drugs of the Future 1997, 22 (2): 109/113; cited from earlier work
# [2] = water solubility; assay type: physicochemical; conditions: compound I and/or its salts and/or hydrates
# [3] = absorption behaviour in the lower sections of the intestine; assay type: in vivo; conditions: in contrast to ciprofloxacin
# Source text: It was therefore the object of the present invention to develop a drug formulation of the compound I and pharmaceutically tolerable salts thereof and/or their hydrates which meets the requirements described above. […] Only this surprising absorption behaviour of moxifloxacin, which is different from known quinolonecarboxylic acid antibiotics, opens up any possibility of developing a retard formulation of moxifloxacin.
Structure (SMILES),antibacterial action [1],solubility [2] [mg/mL],"absorption in the lower sections of the intestine (colon, rectum) [3]"
"COc1c(N2C[C@@H]3CCCN[C@@H]3C2)c(F)cc2c(=O)c(C(=O)O)cn(C3CC3)c12 [compound I, 1-cyclopropyl-7-([S,S]-2,8-diazabicyclo[4.3. 0]non-8-yl)-6-fluoro-1,4-dihydro-8-methoxy-4-oxo-3-quino-lonecarboxylic acid]",frequently significantly better than that of sparfloxacin and ciprofloxacin,~24,
COc1c(N2C[C@@H]3CCCN[C@@H]3C2)c(F)cc2c(=O)c(C(=O)O)cn(C3CC3)c12 [compound II],,,"also absorbed in the lower sections of the intestine (colon, rectum)"
